Test results published in ChEMBL document CHEMBL5316293, “Novel Small-Molecule PD-L1 Inhibitor Induces PD-L1 Internalization and Optimizes the Immune Microenvironment” (J Med Chem, 2023).

Tested on: not listed separately
Test: Antitumor activity against humanized mouse LLC-hPD-L1 cells implanted in hPD-1 knockin C57BL/6 mouse assessed as tumor growth inhibition at 10 mg/kg, ip administered for 12 days starting from day 7 post tumor implantation and measured every 2 days relative to control
Assay type: functional
Details: LLC-hPD-L1, 288 h, time 12 day, read-out: TGI

Compound `COc1nc(OCc2cccc(-c3ccccc3)c2C)ccc1CNCCNC(C)=O` has an inhibition in vivo at 10 mg/kg of 39.8%.

Target: Programmed cell death protein 1/Programmed cell death 1 ligand 1 (Homo sapiens, UniProt Q9NZQ7)
Sequence (Q15116 whole entry): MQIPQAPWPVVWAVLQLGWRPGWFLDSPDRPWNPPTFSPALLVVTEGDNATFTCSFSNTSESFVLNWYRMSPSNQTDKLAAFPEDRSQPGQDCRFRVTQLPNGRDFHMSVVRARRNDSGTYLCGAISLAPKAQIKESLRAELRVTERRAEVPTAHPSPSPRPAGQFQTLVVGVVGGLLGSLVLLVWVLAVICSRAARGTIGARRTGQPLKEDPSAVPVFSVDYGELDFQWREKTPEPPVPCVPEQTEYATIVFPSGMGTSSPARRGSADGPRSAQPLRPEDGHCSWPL
Sequence (Q9NZQ7 whole entry): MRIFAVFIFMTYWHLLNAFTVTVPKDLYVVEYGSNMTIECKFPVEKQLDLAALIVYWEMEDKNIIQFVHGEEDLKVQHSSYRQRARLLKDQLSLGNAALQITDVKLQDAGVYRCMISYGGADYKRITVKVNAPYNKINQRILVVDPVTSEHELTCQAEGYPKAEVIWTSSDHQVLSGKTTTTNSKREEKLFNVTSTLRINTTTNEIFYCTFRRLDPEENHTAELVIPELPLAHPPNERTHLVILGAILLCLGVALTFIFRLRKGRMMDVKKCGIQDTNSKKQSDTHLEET
Test: Inhibition of europium-labeled PD-1/biotinylated PD-L1 interaction (unknown origin) preincubated for 15 mins with PD-L1 followed by PD-1 addition and measured after 90 mins by TR-FRET assay
Assay type: protein-complex assay
Details: not given

Compared with `Cc1c(-c2ccccc2)cccc1N1C(=O)c2ccc(CN3CCOCC3)cc2C1=O`, `Cc1c(-c2ccccc2)cccc1N1C(=O)c2cc(Br)c(CN3CCOCC3)cc2C1=O` is higher in IC50: 2520 nM for the first, greater than 10000 nM for the second. The first is the more potent here.

Compared with `Cc1c(-c2ccc3c(c2)OCCO3)cccc1N1C(=O)c2ccc(C(=O)NCCO)cc2C1=O`, `N#Cc1c(-c2ccc3c(c2)OCCO3)cccc1N1C(=O)c2ccc(C(=O)NCCO)cc2C1=O` is 1.6-fold higher in IC50: 745 nM for the first, 1170 nM for the second. The first is the more potent here.

First: N#Cc1c(-c2ccccc2)cccc1N1C(=O)c2ccc(C(=O)N3CCOCC3)cc2C1=O
Second: Cc1c(-c2ccccc2)cccc1N1C(=O)c2ccc(C(=O)N3CCOCC3)cc2C1=O
The IC50 of the first is 3.4-fold higher: 6690 nM for the first, 1950 nM for the second.

Compared with `Cc1c(-c2ccccc2)cccc1N1C(=O)c2ccc(CNCCNS(C)(=O)=O)cc2C1=O`, `CC(=O)NCCNCc1ccc2c(c1)C(=O)N(c1cccc(-c3ccccc3)c1C)C2=O` is 1.6-fold lower in IC50: 968 nM for the first, 590 nM for the second.

First: Cc1c(-c2ccccc2)cccc1N1C(=O)c2cc(Br)c(CN3CCCC[C@H]3C(=O)O)cc2C1=O
Second: COc1cc2c(cc1CN1CCC[C@H]1C(=O)O)C(=O)N(c1cccc(-c3ccccc3)c1C)C2=O
The IC50 of the first is higher: greater than 10000 nM for the first, 139 nM for the second. The second is the more potent here.

First: Cc1c(-c2ccccc2)cccc1N1C(=O)c2ccc(CNCCNC(=O)OC(C)(C)C)cc2C1=O
Second: Cc1c(-c2ccccc2)cccc1N1C(=O)c2ccc(CNCCO)cc2C1=O
The IC50 of the first is 7-fold higher: 2400 nM for the first, 342 nM for the second. The second is the more potent here.

Going from `COc1cc2c(cc1CNCCO)C(=O)N(c1cccc(-c3ccccc3)c1C)C2=O` to `COc1cc2c(cc1CNCCNC(C)=O)C(=O)N(c1cccc(-c3ccccc3)c1C)C2=O`, the IC50 rises from 15.6 nM to 46.2 nM (3-fold). The first is the more potent here.

First: COc1cc2c(cc1CN[C@@H](CO)C(=O)OC(C)(C)C)C(=O)N(c1cccc(-c3ccccc3)c1C)C2=O
Second: COc1cc2c(cc1CN[C@@H](C)C(=O)O)C(=O)N(c1cccc(-c3ccccc3)c1C)C2=O
The IC50 of the first is 18-fold higher: 296 nM for the first, 16.9 nM for the second. The second is the more potent here.

Going from `CC(=O)COc1ccc2c(c1)C(=O)N(c1cccc(-c3ccccc3)c1C#N)C2=O` to `CC(=O)COc1ccc2c(c1)C(=O)N(c1cccc(-c3ccccc3)c1C)C2=O`, the IC50 rises from 249 nM to 1060 nM (4.3-fold). The first is the more potent here.

First: Cc1c(-c2ccccc2)cccc1N1C(=O)c2ccc(CNCCN)cc2C1=O
Second: Cc1c(-c2ccccc2)cccc1N1C(=O)c2ccc(CN[C@@H](CO)C(=O)O)cc2C1=O
The IC50 of the first is 5.8-fold higher: 912 nM for the first, 156 nM for the second. The second is the more potent here.

Compared with `Cc1c(CN2C(=O)c3ccc(CN4CCCC[C@H]4C(=O)O)cc3C2=O)cccc1-c1ccccc1`, `Cc1c(-c2ccccc2)cccc1N1C(=O)c2ccc(CN3CCCC[C@H]3C(=O)O)cc2C1=O` is 2.2-fold lower in IC50: 4630 nM for the first, 2110 nM for the second. The second is the more potent here.

First: N#Cc1c(-c2ccccc2)cccc1N1C(=O)c2ccc(C(=O)NCCO)cc2C1=O
Second: Cc1c(-c2ccccc2)cccc1N1C(=O)c2ccc(C(=O)NCCO)cc2C1=O
The IC50 of the first is 1.9-fold higher: 3670 nM for the first, 1890 nM for the second.

First: Cc1c(-c2ccccc2)cccc1N1C(=O)c2ccc(C(=O)N3CCN(C(C)C)CC3)cc2C1=O
Second: Cc1c(-c2ccccc2)cccc1N1C(=O)c2ccc(CN3CCC[C@H]3C(N)=O)cc2C1=O
The IC50 of the first is 1.9-fold higher: 5130 nM for the first, 2760 nM for the second.

`Cc1c(-c2ccccc2)cccc1N1C(=O)c2ccc(OCc3ccc(C(C)C)cc3)cc2C1=O` and `Cc1c(-c2ccccc2)cccc1N1C(=O)c2ccc(OCc3ccccc3)cc2C1=O` cannot be ordered by IC50: greater than 10000 nM for the first, greater than 10000 nM for the second.

Going from `Cc1c(-c2ccccc2)cccc1N1C(=O)c2ccc(CN(C)CCO)cc2C1=O` to `CCOC(=O)[C@H](CO)NCc1ccc2c(c1)C(=O)N(c1cccc(-c3ccccc3)c1C)C2=O`, the IC50 rises from 917 nM to 2380 nM (2.6-fold).

`CC(=O)NCCNCc1ccc2c(c1)C(=O)N(Cc1cccc(-c3ccccc3)c1C)C2=O` and `Cc1c(CN2C(=O)c3ccc(CNCCO)cc3C2=O)cccc1-c1ccccc1` are within 1.5-fold of each other in IC50: 5410 nM for the first, 3840 nM for the second.

Going from `Cc1c(-c2ccccc2)cccc1N1C(=O)c2ccc(OCc3cccc(C#N)c3)cc2C1=O` to `N#Cc1cccc(COc2ccc3c(c2)C(=O)N(c2cccc(-c4ccccc4)c2C#N)C3=O)c1`, the IC50 falls from greater than 10000 nM to 395 nM. The second is the more potent here.

First: Cc1c(-c2ccccc2)cccc1N1C(=O)c2ccc(CN3CCC[C@H]3CO)cc2C1=O
Second: Cc1c(-c2ccccc2)cccc1N1C(=O)c2ccc(CN3CCC[C@H]3C(=O)O)cc2C1=O
The IC50 of the first is 1.6-fold higher: 2210 nM for the first, 1420 nM for the second. The second is the more potent here.

Going from `COc1cc2c(cc1CNCC(=O)O)C(=O)N(c1cccc(-c3ccccc3)c1C)C2=O` to `Cc1c(-c2ccccc2)cccc1N1C(=O)c2ccc(CNC3CCOCC3)cc2C1=O`, the IC50 rises from 35.9 nM to 683 nM (19-fold). The first is the more potent here.

Work on `N#Cc1ccc(COc2ccc3c(c2)C(=O)N(c2cccc(-c4ccccc4)c2C#N)C3=O)cc1` yielded an IC50 greater than 10000 nM.
